Measured values: patent publication US10144715B2, “Piperazine derivatives as liver X receptor modulators” (priority 2014, dated 2018)
Read-outs that look alike come from different tables or passages of the source.

Experiments:
[1] = molecular target: LXR α LBD protein (Homo sapiens (Human), UniProt Q13133); assay: LXR α radioligand binding assay (SPA, competition with [3H]TO901317); conditions: read-out: LXRα Binding Ki
[2] = molecular target: Gal4 DNA binding domain fused to the LBD of LXRβ in HEK293 cells (Homo sapiens (Human), UniProt P55055); assay: cell-based
Sequence of Gal4 DNA binding domain fused to the LBD of LXRβ in HEK293 cells (P55055 222-460 limits assumed): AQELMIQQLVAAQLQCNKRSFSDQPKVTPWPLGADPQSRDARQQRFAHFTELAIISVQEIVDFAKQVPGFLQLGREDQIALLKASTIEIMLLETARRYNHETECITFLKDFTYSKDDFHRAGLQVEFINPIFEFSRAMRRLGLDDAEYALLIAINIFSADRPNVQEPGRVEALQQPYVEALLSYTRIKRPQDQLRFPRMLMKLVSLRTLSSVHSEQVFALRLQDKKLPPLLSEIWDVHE

[3] = molecular target: LXR β LBD protein (Homo sapiens (Human), UniProt P55055); assay: biochemical; assay type: binding
Sequence of LXR β LBD protein (P55055 222-460 limits assumed): as above

[4] = molecular target: Gal4 DNA binding domain fused to the LBD of LXRα in HEK293 cells (Homo sapiens (Human), UniProt Q13133); assay: LXR luciferase transcriptional reporter gene assay, agonist mode, LXRα; assay type: cell-based; conditions: for EC50: read-out: Cell LXRα EC50
Sequence of Gal4 DNA binding domain fused to the LBD of LXRα in HEK293 cells (Q13133 209-447): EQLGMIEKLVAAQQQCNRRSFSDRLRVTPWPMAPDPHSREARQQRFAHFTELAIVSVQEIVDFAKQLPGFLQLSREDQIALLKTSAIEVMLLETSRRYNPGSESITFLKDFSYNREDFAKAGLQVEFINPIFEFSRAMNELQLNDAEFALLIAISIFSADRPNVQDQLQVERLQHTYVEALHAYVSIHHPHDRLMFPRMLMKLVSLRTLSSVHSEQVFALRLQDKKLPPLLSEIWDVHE

[5] = agonist mode, read-out: Cell LXRβ EC50
[6] = Biological Test Example 2, agonist mode
[7] = Biological Test Example 1, read-out: LXRβ Binding Ki

Sequence of LXR α LBD protein (Q13133 209-447): as above

Structure (SMILES)	Ki [1]	Cell LXRβ efficacy ([2]; agonist mode)	EC50 [2, 5]	Ki ([3]; read-out: LXRβ Binding Ki)	Cell LXRα efficacy [4]	EC50 [4]	Cell LXRβ efficacy [2]	EC50 [2]	EC50 ([4]; agonist mode)	Ki [3]	Cell LXRβ efficacy [2, 6]	Ki [3, 7]	EC50 [4, 6]	EC50 ([2]; Biological Test Example 2, agonist mode, read-out: Cell LXRβ EC50)
NS(=O)(=O)c1cccc(N2CCN(C[C@H]3CC[C@@H](C(F)F)CC3)[C@H](c3ccccc3)C2)c1 (single isomer, unassigned) [48-22]	1.5 µM	8%	1.19 µM	0.918 µM	9061 (8) %	9.06 µM	–	–	–	–	–	–	–	–
CC(C)[C@@H]1CN(c2ccc(F)c(S(C)(=O)=O)c2)CCN1c1ccnc(OC(F)F)c1 [Cpd No 44-1, (R)-1-(2-(difluoromethoxy)pyridin-4-yl)-4-(4-fluoro-3-(methylsulfonyl)phenyl)-2-isopropylpiperazine]	0.045 µM	–	–	0.007 µM	258 (99) %	0.258 µM	70 (83) %	0.07 µM	–	–	–	–	–	–
CC(C)[C@@H]1CN(c2ccc(C#N)c(S(C)(=O)=O)c2)CCN1c1ncc([C@H](C)O)c(C(F)(F)F)n1 (single isomer, unassigned) [12-5]	1.18 µM	521 (40) %	–	0.08 µM	1481 (22) %	1.48 µM	–	0.521 µM	–	–	–	–	–	–
CNC(=O)c1cnc(N2CCN(c3ccc(F)c(S(C)(=O)=O)c3)C[C@H]2C(C)C)nc1C(F)(F)F [17-3, (R)-2-(4-(4-fluoro-3-(methylsulfonyl)phenyl)-2-isopropylpiperazin-1-yl)-N-methyl-4-(trifluoromethyl)pyrimidine-5-carboxamide]	2.69 µM	448 (18) %	–	0.188 µM	5514 (29) %	–	–	0.448 µM	5.51 µM	–	–	–	–	–
CC(C)[C@H]1CN(c2ccc(CO)c(S(C)(=O)=O)c2)CCN1CC1CCC(O)(C(F)(F)F)CC1 (stereo partly drawn) [Cpd No 48-38, (S)-4-((4-(4-(hydroxymethyl)-3-(methylsulfonyl)phenyl)-2-isopropylpiperazin-1-yl)methyl)-1-(trifluoromethyl)cyclohexan-1-ol]	0.244 µM	30 (81) %	–	0.027 µM	106 (86) %	0.106 µM	–	0.03 µM	–	–	–	–	–	–
COCCNC(=O)c1cnc(N2CCN(c3ccc(F)c(S(C)(=O)=O)c3)C[C@H]2C(C)C)nc1C(F)(F)F [17-6, (R)-2-(4-(4-fluoro-3-(methylsulfonyl)phenyl)-2-isopropylpiperazin-1-yl)-N-(2-methoxyethyl)-4-(trifluoromethyl)pyrimidine-5-carboxamide]	> 3.33 µM	–	–	0.532 µM	–	–	–	> 20 µM	> 20 µM	–	–	–	–	–
CC(C)[C@H]1CN(c2cccc(S(C)(=O)=O)c2)CCN1C[C@H]1CC[C@H](C(F)(F)F)OC1 (single isomer, unassigned) [Cpd No 49-6]	0.216 µM	–	–	0.046 µM	442 (56) %	0.442 µM	114 (67) %	0.114 µM	–	–	–	–	–	–
CS(=O)(=O)c1cccc(N2CCN(CC3CCN(CC(F)(F)F)CC3)[C@@H](c3ccccc3Cl)C2)c1 (single isomer, unassigned) [48-55]	0.277 µM	–	–	0.067 µM	2129 (42) %	2.13 µM	547 (19) %	0.547 µM	–	–	–	–	–	–
C[C@@](O)(c1ccc(CN2CCN(c3cccc(S(C)(=O)=O)c3)C[C@H]2c2ccccc2)cc1)C(F)(F)F (single isomer, unassigned) [46-30]	1.67 µM	532 (12) %	–	–	1787 (28) %	1.79 µM	–	0.532 µM	–	0.216 µM	–	–	–	–
CCN(CCCO)C(=O)c1cnc(N2CCN(c3ccc(F)c(S(C)(=O)=O)c3)C[C@H]2C(C)C)nc1C(F)(F)F [17-15, (R)-N-ethyl-2-(4-(4-fluoro-3-(methylsulfonyl)phenyl)-2-isopropylpiperazin-1-yl)-N-(3-hydroxypropyl)-4-(trifluoromethyl)pyrimidine-5-carboxamide]	> 3.33 µM	–	–	0.36 µM	–	> 20 µM	–	> 20 µM	–	–	–	–	–	–
CNS(=O)(=O)c1cc(N2CCN(c3ncc(C(C)O)c(C(F)(F)F)n3)[C@H](C(C)C)C2)ccc1F (stereo partly drawn) [12-8, 2-fluoro-5-((3R)-4-(5-(1-hydroxyethyl)-4-(trifluoromethyl)pyrimidin-2-yl)-3-isopropylpiperazin-1-yl)-N-methylbenzenesulfonamide]	0.126 µM	59 (46) %	–	0.004 µM	503 (56) %	–	–	0.059 µM	0.503 µM	–	–	–	–	–
C[C@](O)(c1ccc(CN2CCN(c3cccc(S(C)(=O)=O)c3)C[C@H]2c2ccccc2)cc1)C(F)(F)F [46-29, (S)-1,1,1-trifluoro-2-(4-(((R)-4-(3-(methylsulfonyl)phenyl)-2-phenylpiperazin-1-yl)methyl)phenyl)propan-2-ol]	6.32 µM	–	–	–	–	> 20 µM	–	> 20 µM	–	1.86 µM	–	–	–	–
CO[C@]1(C(F)(F)F)CC[C@H](CN2CCN(c3ccc(CO)c(S(C)(=O)=O)c3)C[C@@H]2C(C)C)CC1 (single isomer, unassigned) [Cpd No 48-80]	0.03 µM	–	–	–	27 (73) %	–	–	0.018 µM	–	–	18 (99) %	0.003 µM	0.027 µM	–
COCCN(C)C(=O)c1cnc(N2CCN(c3ccc(F)c(S(C)(=O)=O)c3)C[C@H]2C(C)C)nc1C [17-26, (R)-2-(4-(4-fluoro-3-(methylsulfonyl)phenyl)-2-isopropylpiperazin-1-yl)-N-(2-methoxyethyl)-N,4-dimethylpyrimidine-5-carboxamide]	> 3.33 µM	–	–	2.33 µM	–	–	–	> 20 µM	> 20 µM	–	–	–	–	–
CC(C)[C@@H]1CN(c2ccc(F)c(S(C)(=O)=O)c2)CCN1c1ncc(C(F)(F)F)c(C(N)=O)n1 [4-7, (R)-2-(4-(4-fluoro-3-(methylsulfonyl)phenyl)-2-isopropylpiperazin-1-yl)-5-(trifluoromethyl)pyrimidine-4-carboxamide]	1.68 µM	477 (61) %	–	0.173 µM	2952 (73) %	2.95 µM	–	0.477 µM	–	–	–	–	–	–
CC(C)[C@@H]1CN(c2ccc(Cl)c(S(C)(=O)=O)c2)CCN1c1ncc(CO)c(C(F)(F)F)n1 [11-3, (R)-(2-(4-(4-chloro-3-(methylsulfonyl)phenyl)-2-isopropylpiperazin-1-yl)-4-(trifluoromethyl)pyrimidin-5-yl)methanol]	0.146 µM	95 (44) %	–	0.006 µM	1014 (62) %	1.01 µM	–	0.095 µM	–	–	–	–	–	–
CC(C)[C@@H]1CN(c2ccc(F)c(S(C)(=O)=O)c2)CCN1C[C@H]1CC[C@@H](C(F)(F)F)CC1 [48-24, (R)-4-(4-fluoro-3-(methylsulfonyl)phenyl)-2-isopropyl-1-(((1s,4S)-4-(trifluoromethyl)cyclohexyl)methyl)piperazine]	0.765 µM	63%	0.563 µM	0.055 µM	1347 (88) %	1.35 µM	–	–	–	–	–	–	–	–
CC(C)[C@@H]1CN(c2ccc(CO)c(S(C)(=O)=O)c2)CCN1c1ncc(C(C)(C)O)c(C(F)(F)F)n1 [10-7, (R)-2-(2-(4-(4-(hydroxymethyl)-3-(methylsulfonyl)phenyl)-2-isopropylpiperazin-1-yl)-4-(trifluoromethyl)pyrimidin-5-yl)propan-2-ol]	0.261 µM	235 (40) %	–	0.018 µM	1520 (51) %	–	–	0.235 µM	1.52 µM	–	–	–	–	–
COC(=O)c1cnc(N2CCN(c3ccc(F)c(S(C)(=O)=O)c3)CC2C(C)(C)C)nc1C(F)(F)F (stereo not shown) [9-5, methyl 2-(2-(tert-butyl)-4-(4-fluoro-3-(methylsulfonyl)phenyl)piperazin-1-yl)-4-(trifluoromethyl)pyrimidine-5-carboxylate]	0.041 µM	82 (21) %	–	0.009 µM	504 (46) %	0.504 µM	–	0.082 µM	–	–	–	–	–	–
CS(=O)(=O)c1cc(N2CCN(C[C@H]3CC[C@@H](C(F)(F)F)CC3)[C@H](c3ccccc3Cl)C2)ccc1C(N)=O (single isomer, unassigned) [Cpd No 4-9]	3.65 µM	–	–	0.926 µM	15695 (21) %	15.7 µM	5047 (31) %	5.05 µM	–	–	–	–	–	–
CC(C)[C@@H]1CN(c2ccc(F)c(S(C)(=O)=O)c2)CCN1c1cncc(C(F)(F)F)c1 [Cpd No 20-1, (R)-4-(4-fluoro-3-(methylsulfonyl)phenyl)-2-isopropyl-1-(5-(trifluoromethyl)pyridin-3-yl)piperazine]	0.166 µM	141 (75) %	–	0.024 µM	678 (90) %	0.678 µM	–	0.141 µM	–	–	–	–	–	–
CC(C)[C@H]1CN(c2ccc(CO)c(S(C)(=O)=O)c2)CCN1Cc1ccc(C(F)(F)F)o1 [47-5, (S)-(4-(3-isopropyl-4-((5-(trifluoromethyl)furan-2-yl)methyl)piperazin-1-yl)-2-(methylsulfonyl)phenyl)methanol]	1.09 µM	–	–	0.109 µM	1187 (62) %	1.19 µM	248 (50) %	0.248 µM	–	–	–	–	–	–
CC(C)[C@H]1CC[C@H](CN2CCN(c3ccc(CO)c(S(C)(=O)=O)c3)C[C@@H]2c2ccccc2)CC1 (single isomer, unassigned) [48-77]	0.131 µM	–	–	–	789 (53) %	0.789 µM	–	–	–	–	23%	0.023 µM	–	0.36 µM
